According to patent EP0038251A1, “Derivatives of osides, their preparation and their biological applications” (ANVAR Agence Nationale de Valorisation de la Recherche, priority 1980, dated 1981):

Tested on: hémolysines anti-B
Test: Neutralisation of anti-B haemolysins: inhibition of one agglutinating dose of an anti-B test serum (European Pharmacopoeia techniques)
Assay type: biochemical
Details: dilution 1/5 of a 10 mg/ml solution
Method: On utilise une solution à 10 mg/ml du produit de formule XXVI.

C[C@@H]1O[C@@H](O[C@H]2[C@H](OCCCOCCCN)O[C@H](CO)[C@H](O)[C@@H]2O[C@H]2O[C@H](CO)[C@H](O)[C@H](O)[C@H]2O)[C@@H](O)[C@H](O)[C@@H]1O [trisaccharide XXVI]
inhibition d'une dose agglutinante d'un sérum-test anti-B: inhibition totale
